4 compounds from ChEMBL document CHEMBL1138357 (J Med Chem, 2007) can be followed below.

The target of test [1] is T1, Melatonin receptor type 1B (Homo sapiens, UniProt P49286).
T1 sequence (P49286 whole entry): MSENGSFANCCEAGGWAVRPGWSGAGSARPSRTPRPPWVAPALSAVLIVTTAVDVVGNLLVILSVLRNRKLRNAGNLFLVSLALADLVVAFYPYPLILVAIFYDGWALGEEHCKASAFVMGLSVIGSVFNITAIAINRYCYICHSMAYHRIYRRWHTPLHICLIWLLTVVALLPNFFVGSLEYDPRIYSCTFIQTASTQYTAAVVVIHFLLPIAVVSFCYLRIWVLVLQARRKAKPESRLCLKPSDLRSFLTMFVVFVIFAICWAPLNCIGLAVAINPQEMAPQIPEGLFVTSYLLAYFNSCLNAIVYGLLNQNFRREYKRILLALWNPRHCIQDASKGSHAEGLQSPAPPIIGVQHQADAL
In words: Displacement of 2-[125I]iodomelatonin from human cloned MT2 receptor expressed in […] NIH3T3 cells. It counts as cell-based.

In test [2] the target is Melatonin receptor type 1A (Homo sapiens, UniProt P48039). In words: Displacement of 2-[125I]iodomelatonin from human cloned MT1 receptor expressed in […] NIH3T3 cells. It counts as cell-based.
Test [3] concerns Rattus norvegicus. In words: Sleep promoting activity in rat assessed as increase in duration of slow wave sleep at 40 mg/kg, sc. It counts as functional, organism-based. Also noted: dose 40 mg/kg.
Test [4] concerns Rattus norvegicus. In words: Sleep promoting activity in rat assessed as decrease in latency at 40 mg/kg, sc. It counts as functional, organism-based. More on the design: dose 40 mg/kg.
Test [5] is filed under the species Rattus norvegicus. In words: Anxiolytic activity in Sprague-Dawley rat by elevated plus maze test. It counts as functional, organism-based.
Test [6] has as its system Rattus norvegicus. In words: Sleep promoting activity in rat assessed as increase of paradoxical sleep latency at 40 mg/kg, sc. It is filed as functional, organism-based. More on the design: dose 40 mg/kg.

As usually defined, the Ki is a measure of affinity in units of concentration, obtained from inhibition or displacement. A high value points to lower affinity.

Calls of active or inactive are those of the source. The calls are words filed in the database; no cut-off is given here.

Sequence of Melatonin receptor type 1A (P48039 whole entry): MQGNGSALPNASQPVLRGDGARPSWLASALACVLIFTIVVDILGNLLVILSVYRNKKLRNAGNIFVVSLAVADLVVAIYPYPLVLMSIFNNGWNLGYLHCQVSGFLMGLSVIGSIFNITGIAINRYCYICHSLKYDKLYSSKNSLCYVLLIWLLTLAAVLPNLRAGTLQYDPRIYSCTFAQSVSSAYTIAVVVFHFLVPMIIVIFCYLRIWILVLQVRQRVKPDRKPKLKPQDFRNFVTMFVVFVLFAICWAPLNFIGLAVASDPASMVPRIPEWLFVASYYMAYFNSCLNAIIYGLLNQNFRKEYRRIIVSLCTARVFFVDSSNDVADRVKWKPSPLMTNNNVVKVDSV

In test [1], `COc1cccc(NCCNC(C)=O)c1` had a Ki of 7.41 nM.

For `COc1cccc(N(CCNC(=O)C2CCC2)c2ccccc2)c1`, in test [2], the affinity, expressed as Ki, was 324 nM.

`COc1cccc(N(CCNC(C)=O)c2ccccc2)c1`: the result with Rattus norvegicus [3], in the test on Rattus norvegicus [4], in the test listed under Rattus norvegicus [5] and in the test on Rattus norvegicus [6] was Active.

Take `COc1cccc(OCCNC(C)=O)c1`: the Ki was 12.6 nM in test [1] and 7.24 nM in test [2].
